Experimental data published in patent US9932300B2, “N,N′-diarylurea compounds and N,N′-diarylthiourea compounds as inhibitors of translation initiation” (President and Fellows of Harvard College, priority 2009, dated 2018).
“And” between values parts separate entries of the source, which are not always exact repeats. Equal entries are not always repeated.

Tested on: eIF2-GTP-Met-tRNAi ternary complex
Assay: Ternary complex assay (dual luciferase, firefly/renilla ratio) in stable KLN-tTA/pBISA-DL(ATF-4) cells; HTS and hit confirmation
Format: cell-based, mouse
Set-up: Activity 10 uM / Activity 2.5 uM / Activity 5 uM: unit not given here
Details: confirmed hits of the screen (Table 5); for Activity 2.5 uM: compound at 2.5 uM; for Activity 10 uM: compound at 10 uM; for Activity 5 uM: compound at 5 uM
Text: For assay development, a bi-directional plasmid was designed in which a common promoter/enhancer complex drives the transcription of firefly luciferase (F-luc) ORF fused to the 5′ untranslated region (UTR) of ATF-4, and of the renilla luciferase (R-luc) ORF fused to a 90-nucleotide 5′ UTR derived from the plasmid (FIG. 6A). Because the tetracycline-regulated transactivator ((tTA), required for driving transcription from this vector) is not normally expressed in the mammalian cells, stable KLN cancer cells were constructed that expressed tTA (KLN-tTA).
The KLN-tTA colonies that drove expression of reporter genes from pBISA-DL plasmid were selected by transient transfection and dual luciferase assay. One of these KLN-tTA cell lines was transfected with the pBISA-DL^(ATF-4) expression vector, stable colonies were selected by dual luciferase assay and expanded. To determine if reduced availability of the eIF2*GTP*Met-tRNAi ternary complex increased the translation of firefly luciferase and decreased translation of renilla luciferase, selected KLN-tTA/pBISA-DL^(AFT-4) colonies were treated with thapsigargin (TG) or tunicamycin (TU), two agents known to cause phosphorylation of eIF2α.
This assay was then adapted for high throughput screening in 96 and 384 well plates. This was done by evaluating the cell density, length of exposure to compounds, DMSO tolerance and optimum firefly and renilla substrate. We then challenged these cells with thapsigargin or DMSO. […] Cell-based assays usually have higher variation than homogeneous in vitro assays due to position effect in the plate, and other variables associated with handling of cells and the plates.
Screening was conducted in 384 well white opaque plates (Nalge Nunc), 100 μl volume RPMI+10% fetal bovine serum. Cells were plated at the sub-confluent density of 10,000 cells/well, and allowed to attach for a period of 16-18 hours at 37° C., 5% CO2. Compounds were added as 1 μl of a 1 mM DMSO stock solution for a final screening concentration of 10 μM, using low-volume tips for transfer (Molecular Bioproducts). Cells were then incubated in the presence of compound for an additional sixteen hours, again at 37° C., 5% CO2. Following incubation 70 μl of the culture medium was removed from each well to allow for reagent addition and plates were allowed to equilibrate to room temperature for thirty minutes. Firefly luciferase reporter activity was then read by the addition of thirty microliters of Dual Glo Luciferase reagent (Promega), followed by one hour incubation at room temperature to allow for adequate signal buildup. Luminescence counting was conducted on a Microbeta Trilux using a 1 second read time. Renilla luciferase reporter activity was measured following addition of 30 μl Stop and Glo Luciferase reagent (Promega) and incubation identical to the one carried out for the firefly luciferase one.
Compound scores were interpreted as firefly luciferase activity divided by renilla luciferase activity, normalized to the plate's DMSO control. […] All data analysis was conducted using the BioAssay HTS software package (CambridgeSoft).
102,709 compounds in the NCI Open Chemical Repository were then screened using this HTS assay. […] Initial hits were confirmed by repeating the same dual luciferase assay in 96 well plates. Briefly, 20,000 cells/well were plated in triplicate for each concentration (10, 5 and 2.5 μM) of the compounds.

| SMILES | Activity 2.5 uM | Activity 10 uM | Activity 5 uM |
| --- | --- | --- | --- |
| Cc1ccc2occ/c(=N\Nc3ccccc3)c2c1 [Compound 601994] | 3.42 | 5.21 |  |
| CN1/C(=C/C=C/C=C/C2=[N+](C)c3ccccc3C2(C)C)C(C)(C)c2ccccc21.[I-] [Compound 340302] | 3.29 | 4.54 |  |
| COc1ccc(-c2nnc(-c3nsc4ccccc34)o2)cc1 [Compound 652917] | 2.33 | 3.31 |  |
| Cc1cc(Cl)c(Cl)cc1NC(=O)c1ccc(Cl)cc1Cl [Compound 204246] | 1.92 | 3.49 |  |
| CCC(=O)Oc1c(Br)cc(C=O)cc1OC [Compound 101539] |  | 6.8175 | 14.033 |
| COc1ccc(C2Oc3c(cccc3OC)C=C2[N+](=O)[O-])cc1 (stereo not shown) [Compound 667223] |  | 6.01 and 8.726 |  |
| COc1ccc(C2=NN(C(C)=O)c3nc4ccccc4nc3O2)cc1 [Compound 643713] | 2.72 | 4.87 |  |
| N=C(N)c1cn(C2OC(CO)C(O)C2O)c2ncnc(N)c12 (stereo not shown) [Compound 131663] | 7 | 8.18 |  |
| C(=N\Nc1ccc2ccccc2n1)/c1ccccn1 [Compound 527347] | 2.551 | 5.591 |  |
| S=C(N/N=C/c1ccccn1)N1CC2CCC(CC2)C1 [Compound 667885] | 8.61 | 15.62 |  |
| Cc1ccc(-c2nc(-c3ccc(N=Cc4ccc(N(CCCl)CCCl)cc4C)cc3)cs2)cc1.Cl [Compound 101484] |  | 3.4 | 2.4 |
| C=C1CC2(OC1=O)C(=O)N(C)c1ccccc12 (stereo not shown) [Compound 194807] | 1.72 | 3.45 |  |
| O=C(CCl)Nc1ccc(O)c2ccccc12 [Compound 125369] | 1.08 | 9.98 |  |
| [Ru].[SH+]=C([SH2+])N1CCCCC1.[SH+]=C([SH2+])N1CCCCC1 [Compound 662875] | 10.55 | 40.72 |  |
| O=C(Nc1cccc(Cl)c1)NC1CCC(CC2CCCCC2)CC1.O=C(Nc1cccc(Cl)c1)NC1CCC(CC2CCCCC2)CC1 (stereo not shown) [Compound 172879] | 1.11 | 3.6 |  |
| CCCCCC(CN(C)C)C(=O)CC(SCC)c1ccc(Cl)c(Cl)c1 (stereo not shown) [Compound 326123] | 0.47 | 12.9 |  |
| Cc1ccc([P+](Cc2ccccc2)(c2ccccc2)c2ccc(C)cc2)cc1 [Compound 116685] |  | 4.5 | 1.9 |
| c1csc(-c2[nH]nc3c2CCc2ccccc2-3)c1 [Compound 370463] | 4.76 | 5.98 |  |
| O=C(c1ccccc1)c1coc(-c2ccccc2)c1 [Compound 100239] |  | 7.6705 | 6.748 |
| O=C1C=CC(=O)N1c1ccc2c(c1)Cc1cc(NC(=O)C(F)(F)F)ccc1-2 [Compound 408383] | 0.84 | 10.77 |  |
| CCc1ccc(N=Nc2ccc(N(C)C)cc2)cc1 [Compound 106343] |  | 4.1 | 2.6 |

| SMILES | Activity 2.5 uM | Activity 10 uM | Activity 5 uM |
| --- | --- | --- | --- |
| c1ccc(-c2noc(-c3ccccc3)n2)cc1 [Compound 400077] | 2.04 | 3.14 |  |
| Cc1ccc2nc(-c3ccccc3)c(N=O)n2c1 [Compound 369061] |  | 6.3 | 5.137 |
| Cc1cn(C2OC(CO[Si](C)(C)C(C)(C)C)C(N(C)O[Si](C)(C)C(C)(C)C)C2[Se]c2ccccc2)c(=O)[nH]c1=O (stereo not shown) [Compound 674469] | 1.37 | 23.82 |  |
| O=C1C(c2c[nH]c3ccccc23)=Nc2ccc(Br)cc21 [Compound 105326] | 9.56 |  |  |
| O=C(/C=C/c1ccccc1)Nc1ccc(Cl)c(Cl)c1 [Compound 191395] |  | 7.0185 | 3.609 |
| O=[N+]([O-])c1cccc(-c2cn3c(n2)Cc2ccccc2C3)c1 [Compound 693037] |  | 8.088 | 6.794 |
| C/C(=N\N=C(/C)c1ccc(F)cc1)c1ccc(F)cc1 [Compound 202060] |  | 5.049 | 3.63 |
| O=c1cc(-c2ccc3ccccc3n2)oc2ccc(Cl)cc12 [Compound 61626] |  | 3.1685 | 2.793 |
| c1ccc(-c2ccc(-c3csnn3)cc2)cc1 [Compound 298243] |  | 3.327 | 2.747 |
| Cc1ccc(N=P2(Nc3ccc(C)cc3)N=P(Nc3ccc(C)cc3)(N3CC3)NP(=Nc3ccc(C)cc3)(N3CC3)N2)cc1 (stereo not shown) [Compound 67112] |  | 16.3 | 3.1 |
| O=C(Nc1ccc2ccccc2c1)c1ccc(F)cc1 [Compound 214041] |  | 8.374 | 6.705 |
| CC(C)=CCC1=CC(=O)c2ccccc2C1=O [Compound 123507] |  | 10.5 | 2.41 |
| CCCCCCCCCCCCCCCC[N+](C)(C)CCN=[N+]=[N-].O=S(=O)([O-])C(F)(F)F [Compound 297154] | 1.24 | 5.62 |  |
| [Br][Ni][Br].c1ccc(CN2CCN(Cc3ccccc3)CCN(Cc3ccccc3)CCN(Cc3ccccc3)CC2)cc1 [Compound 236237] | 1.78 | 57.44 |  |
| N#Cc1nc2c3ccccc3c(N=NC(=N)N[N+](=O)[O-])c-2[nH]c1C#N [Compound 186256] |  | 3.71 | 3.212 |
| S=C1CC(c2ccccc2)Sc2ccccc2N1 (stereo not shown) [Compound 667463] | 3.13 | 3.45 |  |
| BrC(Br)=C1C(=C(Br)Br)C(Br)C1Br (stereo not shown) [Compound 624851] | 12.65 |  |  |
| CN(C)c1ccc(N=Nc2cccc(Cl)c2)cc1 [Compound 204515] | 2.84 | 5.31 |  |
| CN(C)c1cc(=O)c2c(ccc3ccccc32)o1 [Compound 292795] |  | 4.66 | 3.69 |
| CCN(CC)CCCNc1c2ccccc2nc2ccccc12.Cl.Cl [Compound 109326] | 0.69 | 17.89 |  |
